Laboratory results: patent publication US20250092065A1, “2-(INDAZOL-5-YL)-6-(PIPERIDIN-4-YL)-1,7-NAPHTHYRIDINE DERIVATIVES AND RELATED COMPOUNDS AS MODULATORS FOR SPLICING NUCLEIC ACIDS AND FOR THE TREATMENT OF PROLIFERATIVE DISEASES” (REMIX THERAPEUTICS INC., priority 2022, published 2025)
pIC50: −log10 of the molar value. Counter-ions that a name gives are not always drawn.

Experiments:
HTT = assay: HiBiT protein abundance assay, HTT (K562 HiBiT knock-in); type: cell-based, human; conditions: HiBiT knock-in K562 cells, 24 hours, top dose 10 μM
Method in brief: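 K562 HiBiT knock-in, 24 h, 37 °C, top 10 μM final, 3-fold ×10, DMSO ≤0.25%. Lytic HiBiT luminescence; PC = parental K562, NC = DMSO; 4PL IC50.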

SMN2 mRNA = assay: RT-qPCR splicing assay, SMN2 mRNA; type: cell-based, human; conditions: Homo sapiens, canonical junction qPCR panel, Table 4; read-out: SMN2 IC50 (decrease in CJ mRNA levels)
Method in brief: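 A673 or K562 cells treated 24 h at 37 °C with 11-point 3-fold dilutions (top final 10 uM, DMSO ≤0.25%). Lysates analysed by one-step RT-qPCR for canonical (CJ) and alternative-exon (AJ) junctions, normalized to GAPDH, GUSB or PPIA. ΔΔCt vs DMSO, RQ = 2^(−ΔΔCt), expressed as percentage response.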

Row | pIC50 (HTT) | pIC50 (SMN2 mRNA) | Structure (SMILES)
1 | 6.00 to 7.00 |  | C[C@H]1CN(c2cc(F)c3nc(-c4cc(F)c5nn(C)cc5c4)ccc3c2)C[C@H](C)N1 (single isomer, unassigned) [Compound 760]
2 | > 7.00 |  | C[C@H]1CN(c2cc(F)c3nc(-c4cc5cn(C)nc5cc4O)ccc3c2)C[C@H](C)N1 (single isomer, unassigned) [Compound 770]
3 | 6.00 to 7.00 |  | Cc1cn2nc(-c3ccc4cc(N5C[C@H](C)N[C@@H](C)C5)cc(F)c4n3)cc(C)c2n1 (single isomer, unassigned) [Compound 799]
4 | > 7.00 |  | Cc1c(O)c(-c2ccc3cc(N4C[C@H](C)N[C@@H](C)C4)cc(F)c3n2)cc2cn(C)nc12 (single isomer, unassigned) [Compound 800, 2,2,2-trifluoroacetate]
5 | 6.00 to 7.00 |  | Cc1nc(-c2cc3cn(C)nc3cc2O)nc2ccc(N3C[C@H](C)N[C@@H](C)C3)cc12 (single isomer, unassigned) [Compound 806]
6 | 6.00 to 7.00 |  | Cc1nc(-c2cc3cn(C)nc3c(C)c2O)nc2ccc(N3C[C@H](C)N[C@@H](C)C3)cc12 (single isomer, unassigned) [Compound 807]
7 | 5.00 to 6.00 | 6.00 to 7.00 | Cn1cc2cc(-c3cc4ccc(C5CCNCC5)nc4cn3)c(O)cc2n1 [Compound 104]
8 | > 7.00 | > 7.00 | Cn1cc2cc(-c3ccc4nc(N5CC[C@H](NC6CCC6)C5)ccc4n3)c(O)cc2n1 [Compound 156]
9 | > 7.00 | > 7.00 | CC(C)N[C@H]1CCN(c2ccc3nc(-c4cc5cn(C)nc5cc4O)ccc3n2)C1 [Compound 171]
10 | > 7.00 | > 7.00 | Cc1cn2nc(-c3ccc4nc(N5CCC(NC(C)(C)C)C5)ccc4n3)cc(C)c2n1 (stereo not drawn) [Compound 186]
11 | > 7.00 | > 7.00 | Cn1cc2cc(-c3ccc4nc(N5CC[C@H](NCC6CC6)C5)ccc4n3)c(O)cc2n1 [Compound 194]
12 | 5.00 to 6.00 | > 7.00 | CN(C)C1CCN(c2ccc3nc(-c4cc5cn(C)nc5c(F)c4O)ncc3c2)CC1 [Compound 757, 5-{6-[4-(dimethylamino)piperidin-1-yl]quinazolin-2-yl}-7-fluoro-2-methylindazol-6-ol]
13 | 6.00 to 7.00 | > 7.00 | C[C@@H]1CN(c2cc(F)c3nc(-c4cc(F)c5nn(C)cc5c4)ccc3c2)C[C@H](C)N1 [Compound 758, 6-[(3R,5S)-3,5-dimethylpiperazin-1-yl]-8-fluoro-2-(7-fluoro-2-methylindazol-5-yl)quinoline]
14 | > 7.00 | > 7.00 | C[C@@H]1CN(c2cc(F)c3nc(-c4cc5cn(C)nc5c(F)c4O)ccc3c2)C[C@H](C)N1 [Compound 763, 5-{6-[(3R,5S)-3,5-dimethylpiperazin-1-yl]-8-fluoroquinolin-2-yl}-7-fluoro-2-methylindazol-6-ol hydrochloride]
15 | 5.00 to 6.00 | > 7.00 | C[C@@H]1CN(c2cc(F)c3nc(-c4cc5cn(C)nc5cc4O)ccc3c2)C[C@H](C)N1 [Compound 768, 5-{6-[(3R,5S)-3,5-dimethylpiperazin-1-yl]-8-fluoroquinolin-2-yl}-2-methylindazol-6-ol hydrochloride]
16 | 6.00 to 7.00 | > 7.00 | Cc1cn2cc(-c3ncc4cc(N5C[C@@H](C)N[C@@H](C)C5)ccc4n3)cc(F)c2n1 [Compound 773, 6-[(3R,5S)-3,5-dimethylpiperazin-1-yl]-2-{8-fluoro-2-methylimidazo[1,2-a]pyridin-6-yl}quinazoline]
17 | 6.00 to 7.00 | > 7.00 | Cc1cn2cc(-c3nc(C(=O)NC4CCC4)c4cc(N5C[C@@H](C)N[C@@H](C)C5)ccc4n3)cc(F)c2n1 [Compound 779, N-cyclobutyl-6-[(3R,5S)-3,5-dimethylpiperazin-1-yl]-2-{8-fluoro-2-methylimidazo[1,2-a]pyridin-6-yl}quinazoline-4-carboxamide]
18 | 6.00 to 7.00 |  | Cc1c(O)c(-c2nc(C(N)=O)c3cc(N4C[C@H](C)N[C@@H](C)C4)ccc3n2)cc2cn(C)nc12 [Compound 796]
19 | 6.00 to 7.00 |  | C[C@H]1CN(c2ccc3nc(-c4cc5cn(C)nc5cc4O)nc(C(N)=O)c3c2)C[C@H](C)N1 [Compound 797]
20 | 6.00 to 7.00 | > 7.00 | Cc1cn2cc(-c3ncc4cc(N5C[C@H](C)N[C@@H](C)C5)ccc4n3)cc(F)c2n1 [Compound 803, 6-[(3S,5S)-3,5-dimethylpiperazin-1-yl]-2-{8-fluoro-2-methylimidazo[1,2-a]pyridin-6-yl}quinazoline]
21 | > 7.00 |  | Cc1c(O)c(-c2ccc3cc(N4CCNC5(CC5)C4)cc(F)c3n2)cc2cn(C)nc12 [Compound 805, 5-(6-{4,7-diazaspiro[2.5]octan-7-yl}-8-fluoroquinolin-2-yl)-2,7-dimethylindazol-6-ol]
